Experimental data as given in PMC3119665, “A New Drug Design Targeting the Adenosinergic System for Huntington's Disease” (PLoS ONE, 2011).

Tests used:
Adrenergic β 3 = molecular target: T1, Adrenergic β 3 (Homo sapiens, UniProt P13945); assay: Radioligand binding panel (Table S1); conditions: 10 μM T1-11, n 2
T1 construct: purchased MDS Pharma Services Taiwan

Adrenomedullin AM2 = molecular target: T2, Adrenomedullin AM2 (Homo sapiens, UniProt O60896+Q16602); assay: Radioligand binding panel (Table S1); conditions: 10 μM T1-11, n 2
T2 construct: purchased MDS Pharma Services Taiwan

APJ = molecular target: T3, APJ (Homo sapiens, UniProt P35414); assay: Radioligand binding panel (Table S1); conditions: 10 μM T1-11, n 2
T3 construct: purchased MDS Pharma Services Taiwan

Bombesin BB1 = molecular target: T4, Bombesin BB1 (Homo sapiens, UniProt P28336); assay: Radioligand binding panel (Table S1); conditions: 10 μM T1-11, n 2
T4 construct: purchased MDS Pharma Services Taiwan

Bombesin BB3 = molecular target: T5, Bombesin BB3 (Homo sapiens, UniProt P32247); assay: Radioligand binding panel (Table S1); conditions: 10 μM T1-11, n 2
T5 construct: purchased MDS Pharma Services Taiwan

Calcium Channel N-Type = molecular target: T6, Calcium Channel N-Type (Rattus norvegicus, UniProt Q02294); assay: Radioligand binding panel (Table S1); conditions: 10 μM T1-11, n 2
T6 construct: purchased MDS Pharma Services Taiwan
T6 sequence (Q02294 whole entry): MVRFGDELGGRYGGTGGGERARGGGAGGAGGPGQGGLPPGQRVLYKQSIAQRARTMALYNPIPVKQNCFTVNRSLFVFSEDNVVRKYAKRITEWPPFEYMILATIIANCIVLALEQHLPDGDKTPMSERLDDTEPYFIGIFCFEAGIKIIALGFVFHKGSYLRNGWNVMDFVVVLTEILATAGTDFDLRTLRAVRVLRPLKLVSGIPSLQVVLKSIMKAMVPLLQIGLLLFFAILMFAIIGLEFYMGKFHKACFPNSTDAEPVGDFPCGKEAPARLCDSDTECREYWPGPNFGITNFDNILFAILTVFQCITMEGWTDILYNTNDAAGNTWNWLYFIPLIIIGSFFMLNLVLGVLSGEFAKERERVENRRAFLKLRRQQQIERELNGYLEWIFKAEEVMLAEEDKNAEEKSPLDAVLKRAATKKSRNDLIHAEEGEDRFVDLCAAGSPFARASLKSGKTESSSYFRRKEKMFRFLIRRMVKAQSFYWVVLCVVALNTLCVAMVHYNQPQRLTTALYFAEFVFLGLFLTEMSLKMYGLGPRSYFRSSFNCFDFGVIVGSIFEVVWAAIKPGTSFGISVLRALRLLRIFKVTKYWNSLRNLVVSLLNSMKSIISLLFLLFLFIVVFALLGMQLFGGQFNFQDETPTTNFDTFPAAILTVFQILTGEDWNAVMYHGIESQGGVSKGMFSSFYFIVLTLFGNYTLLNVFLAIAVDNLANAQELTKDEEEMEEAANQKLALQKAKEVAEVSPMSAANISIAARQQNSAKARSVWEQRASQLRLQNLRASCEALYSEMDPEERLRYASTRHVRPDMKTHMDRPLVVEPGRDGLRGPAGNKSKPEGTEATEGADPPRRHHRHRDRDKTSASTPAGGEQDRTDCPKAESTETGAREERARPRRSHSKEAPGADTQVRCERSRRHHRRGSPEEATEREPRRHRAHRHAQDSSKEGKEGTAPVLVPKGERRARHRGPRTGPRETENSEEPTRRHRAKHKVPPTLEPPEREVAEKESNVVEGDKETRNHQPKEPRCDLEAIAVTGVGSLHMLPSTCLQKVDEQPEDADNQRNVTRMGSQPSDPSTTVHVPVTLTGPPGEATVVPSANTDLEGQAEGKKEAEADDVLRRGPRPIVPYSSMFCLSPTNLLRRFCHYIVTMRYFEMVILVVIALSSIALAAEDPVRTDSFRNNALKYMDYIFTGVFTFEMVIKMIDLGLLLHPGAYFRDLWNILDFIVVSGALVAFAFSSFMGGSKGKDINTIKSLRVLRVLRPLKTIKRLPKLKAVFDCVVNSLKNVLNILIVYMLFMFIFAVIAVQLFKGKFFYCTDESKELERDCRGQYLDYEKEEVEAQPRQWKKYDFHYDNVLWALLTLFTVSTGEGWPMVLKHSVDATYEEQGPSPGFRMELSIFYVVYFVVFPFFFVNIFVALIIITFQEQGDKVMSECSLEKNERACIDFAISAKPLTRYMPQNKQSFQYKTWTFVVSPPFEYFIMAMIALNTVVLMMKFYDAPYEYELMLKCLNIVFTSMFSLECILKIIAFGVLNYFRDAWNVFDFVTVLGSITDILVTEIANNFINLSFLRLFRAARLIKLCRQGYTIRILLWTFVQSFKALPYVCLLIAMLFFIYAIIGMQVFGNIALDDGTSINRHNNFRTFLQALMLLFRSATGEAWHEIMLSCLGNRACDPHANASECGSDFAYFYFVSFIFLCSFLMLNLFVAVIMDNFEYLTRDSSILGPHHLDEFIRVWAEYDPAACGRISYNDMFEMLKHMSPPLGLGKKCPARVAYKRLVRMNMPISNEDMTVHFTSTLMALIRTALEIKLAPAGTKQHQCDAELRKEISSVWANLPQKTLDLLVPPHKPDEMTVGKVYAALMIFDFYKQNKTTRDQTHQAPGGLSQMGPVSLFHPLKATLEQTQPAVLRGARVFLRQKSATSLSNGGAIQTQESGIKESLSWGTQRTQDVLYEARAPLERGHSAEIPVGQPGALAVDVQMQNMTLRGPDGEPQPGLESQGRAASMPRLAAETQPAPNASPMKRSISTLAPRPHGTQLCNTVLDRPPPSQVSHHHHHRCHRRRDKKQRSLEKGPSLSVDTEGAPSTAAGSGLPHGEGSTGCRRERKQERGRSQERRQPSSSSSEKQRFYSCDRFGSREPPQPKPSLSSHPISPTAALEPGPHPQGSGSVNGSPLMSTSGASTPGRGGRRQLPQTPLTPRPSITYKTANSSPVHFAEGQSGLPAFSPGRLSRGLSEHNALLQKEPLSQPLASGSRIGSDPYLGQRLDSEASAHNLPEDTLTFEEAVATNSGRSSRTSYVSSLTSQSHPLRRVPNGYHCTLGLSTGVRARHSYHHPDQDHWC

Cannabinoid CB1 = molecular target: T7, Cannabinoid CB1 (Homo sapiens, UniProt P21554); assay: Radioligand binding panel (Table S1); conditions: 10 μM T1-11, n 2
T7 construct: purchased MDS Pharma Services Taiwan
T7 sequence (P21554 whole entry): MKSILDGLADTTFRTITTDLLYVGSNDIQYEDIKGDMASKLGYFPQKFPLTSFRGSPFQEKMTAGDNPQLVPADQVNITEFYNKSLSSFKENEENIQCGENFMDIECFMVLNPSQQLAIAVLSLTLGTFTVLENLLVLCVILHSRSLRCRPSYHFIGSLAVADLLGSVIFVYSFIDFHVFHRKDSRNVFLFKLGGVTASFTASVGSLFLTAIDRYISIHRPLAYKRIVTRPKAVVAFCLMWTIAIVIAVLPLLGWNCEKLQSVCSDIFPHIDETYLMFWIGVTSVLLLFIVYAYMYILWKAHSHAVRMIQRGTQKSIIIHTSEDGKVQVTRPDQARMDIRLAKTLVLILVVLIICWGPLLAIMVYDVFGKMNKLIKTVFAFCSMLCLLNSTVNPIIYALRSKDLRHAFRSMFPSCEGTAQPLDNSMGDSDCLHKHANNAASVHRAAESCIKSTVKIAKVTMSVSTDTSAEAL

Chemokine CCR1 = molecular target: T8, Chemokine CCR1 (Homo sapiens, UniProt P32246); assay: Radioligand binding panel (Table S1); conditions: 10 μM T1-11, n 2
T8 construct: purchased MDS Pharma Services Taiwan

[1] = molecular target: T9, Cholecystokinin CCK. (CCKA) (Homo sapiens, UniProt P32238); assay: Radioligand binding panel (Table S1); conditions: 10 μM T1-11, n 2
T9 construct: purchased MDS Pharma Services Taiwan
T9 sequence (P32238 whole entry): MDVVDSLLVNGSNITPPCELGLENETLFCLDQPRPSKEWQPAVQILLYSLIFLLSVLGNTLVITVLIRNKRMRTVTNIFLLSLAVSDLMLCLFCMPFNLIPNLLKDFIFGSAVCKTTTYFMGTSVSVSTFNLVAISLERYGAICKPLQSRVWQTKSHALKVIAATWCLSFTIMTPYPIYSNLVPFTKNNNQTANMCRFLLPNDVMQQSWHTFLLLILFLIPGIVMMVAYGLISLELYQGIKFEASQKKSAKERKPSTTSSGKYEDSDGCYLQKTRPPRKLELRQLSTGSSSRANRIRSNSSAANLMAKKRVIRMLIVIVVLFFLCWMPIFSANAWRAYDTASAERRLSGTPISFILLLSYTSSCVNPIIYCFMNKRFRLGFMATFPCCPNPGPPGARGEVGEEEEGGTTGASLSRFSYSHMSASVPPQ

Dopamine D2S = molecular target: T10, Dopamine D2S (Homo sapiens, UniProt P14416); assay: Radioligand binding panel (Table S1); conditions: 10 μM T1-11, n 2
T10 construct: purchased MDS Pharma Services Taiwan
T10 sequence (P14416 1-414 isoform P14416-2): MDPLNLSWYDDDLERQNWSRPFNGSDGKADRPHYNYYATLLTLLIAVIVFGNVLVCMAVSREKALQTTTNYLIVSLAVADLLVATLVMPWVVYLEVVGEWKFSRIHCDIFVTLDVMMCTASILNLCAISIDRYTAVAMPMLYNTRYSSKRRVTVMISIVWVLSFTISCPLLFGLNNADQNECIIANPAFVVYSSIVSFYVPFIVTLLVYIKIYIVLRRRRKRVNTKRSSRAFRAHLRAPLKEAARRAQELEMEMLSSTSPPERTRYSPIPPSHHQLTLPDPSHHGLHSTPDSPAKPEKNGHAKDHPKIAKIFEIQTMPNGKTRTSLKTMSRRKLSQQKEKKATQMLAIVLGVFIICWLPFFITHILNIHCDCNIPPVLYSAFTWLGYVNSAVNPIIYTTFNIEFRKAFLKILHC

Dopamine D4.4 = molecular target: T11, Dopamine D4.4 (Homo sapiens, UniProt P21917); assay: Radioligand binding panel (Table S1); conditions: 10 μM T1-11, n 2
T11 construct: purchased MDS Pharma Services Taiwan

[2] = molecular target: T12, G Protein-Coupled Receptor, GPR103 (Homo sapiens, UniProt Q96P65); assay: Radioligand binding panel (Table S1); conditions: 10 μM T1-11, n 2
T12 construct: purchased MDS Pharma Services Taiwan
T12 sequence (Q96P65 whole entry): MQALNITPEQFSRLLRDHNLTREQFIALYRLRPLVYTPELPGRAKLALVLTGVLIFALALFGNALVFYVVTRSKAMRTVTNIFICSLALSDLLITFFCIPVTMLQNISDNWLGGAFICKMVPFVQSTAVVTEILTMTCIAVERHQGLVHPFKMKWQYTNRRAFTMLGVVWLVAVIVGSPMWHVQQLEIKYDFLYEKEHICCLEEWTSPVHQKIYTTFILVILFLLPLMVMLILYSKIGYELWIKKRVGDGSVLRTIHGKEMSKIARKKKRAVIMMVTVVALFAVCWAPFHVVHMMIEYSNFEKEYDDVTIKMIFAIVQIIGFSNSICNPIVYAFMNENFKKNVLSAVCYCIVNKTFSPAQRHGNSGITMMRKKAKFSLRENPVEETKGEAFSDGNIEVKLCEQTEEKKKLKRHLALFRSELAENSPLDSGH

GABAB1A = molecular target: T13, GABAB1A (Homo sapiens, UniProt Q9UBS5); assay: Radioligand binding panel (Table S1); conditions: 10 μM T1-11, n 2
T13 construct: purchased MDS Pharma Services Taiwan

Galanin GAL1 = molecular target: T14, Galanin GAL1 (Homo sapiens, UniProt P47211); assay: Radioligand binding panel (Table S1); conditions: 10 μM T1-11, n 2
T14 construct: purchased MDS Pharma Services Taiwan

Glutamate, Kainate = assay: Radioligand binding panel (Table S1); parameters: species or system rat; conditions: 10 μM T1-11, n 2
Insulin = assay: Radioligand binding panel (Table S1); parameters: species or system rat; conditions: 10 μM T1-11, n 2
Muscarinic M5 = molecular target: T15, Muscarinic M5 (Homo sapiens, UniProt P08912); assay: Radioligand binding panel (Table S1); conditions: 10 μM T1-11, n 2
T15 construct: purchased MDS Pharma Services Taiwan

[3] = test system: Muscarinic, Oxotremorine-M; assay: Radioligand binding panel (Table S1); parameters: species or system rat; conditions: 10 μM T1-11, n 2
Nicotinic Acetylcholine = assay: Radioligand binding panel (Table S1); parameters: species or system human; conditions: 10 μM T1-11, n 2
[4] = molecular target: T16, Nicotinic Acetylcholine α1, Bungarotoxin (Homo sapiens, UniProt P02708+P07510+Q07001); assay: Radioligand binding panel (Table S1)
T16 construct: purchased MDS Pharma Services Taiwan

[5] = molecular target: T17, Nicotinic Acetylcholine α7, Bungarotoxin (Rattus norvegicus, UniProt Q05941); assay: Radioligand binding panel (Table S1)
T17 construct: purchased MDS Pharma Services Taiwan

Opiate κ (OP2, KOP) = molecular target: T18, Opiate κ (OP2, KOP) (Homo sapiens, UniProt P41145); assay: Radioligand binding panel (Table S1); conditions: 10 μM T1-11, n 2
T18 construct: purchased MDS Pharma Services Taiwan
T18 sequence (P41145 whole entry): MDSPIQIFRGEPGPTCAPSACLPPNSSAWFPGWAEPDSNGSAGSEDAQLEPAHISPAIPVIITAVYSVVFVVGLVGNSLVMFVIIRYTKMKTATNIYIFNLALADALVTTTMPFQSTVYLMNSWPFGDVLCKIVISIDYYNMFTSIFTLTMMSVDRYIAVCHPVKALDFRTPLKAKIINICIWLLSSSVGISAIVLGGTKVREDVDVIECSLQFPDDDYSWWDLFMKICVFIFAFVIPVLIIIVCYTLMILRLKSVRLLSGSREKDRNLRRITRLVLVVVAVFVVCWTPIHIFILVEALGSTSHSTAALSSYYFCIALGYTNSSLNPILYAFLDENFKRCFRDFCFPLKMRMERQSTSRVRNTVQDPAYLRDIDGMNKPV

[6] = molecular target: T19, Phosphodiesterase PDE10A1 (Homo sapiens, UniProt Q9Y233); assay: Radioligand binding panel (Table S1); conditions: 10 μM T1-11, n 2
T19 construct: purchased MDS Pharma Services Taiwan

[7] = test system: Platelet-Derived Growth Factor (PDGF); assay: Radioligand binding panel (Table S1); parameters: species or system mouse; conditions: 10 μM T1-11, n 2
Potassium Channel [KA] = assay: Radioligand binding panel (Table S1); parameters: species or system rat; conditions: 10 μM T1-11, n 2
Prostanoid EP4 = molecular target: T20, Prostanoid EP4 (Homo sapiens, UniProt P35408); assay: Radioligand binding panel (Table S1); conditions: 10 μM T1-11, n 2
T20 construct: purchased MDS Pharma Services Taiwan

Purinergic P 2X = assay: Radioligand binding panel (Table S1); parameters: species or system rabbit; conditions: 10 μM T1-11, n 2
[8] = molecular target: T21, Serotonin (5-Hydroxytryptamine) 5-HT2A (Homo sapiens, UniProt P28223); assay: Radioligand binding panel (Table S1); conditions: 10 μM T1-11, n 2
T21 construct: purchased MDS Pharma Services Taiwan
Procedure: Radoligand binding assays were performed by MDS Pharma Services Taiwan (Taipei, Taiwan) using standard binding protocols. For the binding assay of the A2AR [67], membrane proteins collected from HEK293 cells overexpressing the human A2AR were incubated in reaction buffer [50 mM Tris-HCl (pH 7.4), 10 mM MgCl2, 1 mM EDTA, and 2 U/mL adenosine deaminase] containing ^3H-CGS21680 (50 nM) for 90 min at 25°C. Nonspecific binding was assessed in the presence of 50 µM adenosine- 5′-N-ethylcarboxamide. […] Nonspecific binding was assessed in the presence of 1 µM IB-MECA (Tocris Bioscience, Ellisville, MS, USA).

[9] = molecular target: T22, Serotonin (5-Hydroxytryptamine) 5-HT4 (Cavia porcellus, UniProt O70528); assay: Radioligand binding panel (Table S1); parameters: species or system guinea pig; conditions: 10 μM T1-11, n 2
T22 construct: purchased MDS Pharma Services Taiwan
T22 sequence (O70528 whole entry): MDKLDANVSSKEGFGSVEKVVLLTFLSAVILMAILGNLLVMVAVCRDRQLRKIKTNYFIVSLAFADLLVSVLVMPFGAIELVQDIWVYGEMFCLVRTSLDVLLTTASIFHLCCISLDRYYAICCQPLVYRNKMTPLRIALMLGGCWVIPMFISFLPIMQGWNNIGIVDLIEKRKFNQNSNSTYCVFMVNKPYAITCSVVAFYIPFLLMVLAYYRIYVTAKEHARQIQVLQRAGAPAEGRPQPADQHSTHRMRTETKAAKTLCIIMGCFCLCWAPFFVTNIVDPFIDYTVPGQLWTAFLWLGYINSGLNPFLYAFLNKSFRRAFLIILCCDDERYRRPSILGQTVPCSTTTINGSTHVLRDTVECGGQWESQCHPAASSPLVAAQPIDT

[10] = molecular target: T23, Serotonin (5-Hydroxytryptamine) 5-HT7 (Homo sapiens, UniProt P34969); assay: Radioligand binding panel (Table S1); conditions: 10 μM T1-11, n 2
T23 construct: purchased MDS Pharma Services Taiwan

Somatostatin sst4 = molecular target: T24, Somatostatin sst4 (Homo sapiens, UniProt P31391); assay: Radioligand binding panel (Table S1); conditions: 10 μM T1-11, n 2
T24 construct: purchased MDS Pharma Services Taiwan

[11] = molecular target: T25, Vasoactive Intestinal Peptide VIP1 (Homo sapiens, UniProt P32241); assay: Radioligand binding panel (Table S1); conditions: 10 μM T1-11, n 2
T25 construct: purchased MDS Pharma Services Taiwan

Vasopressin V2 = molecular target: T26, Vasopressin V2 (Homo sapiens, UniProt P30518); assay: Radioligand binding panel (Table S1); conditions: 10 μM T1-11, n 2
T26 construct: purchased MDS Pharma Services Taiwan

Vitamin D3 = molecular target: T27, Vitamin D3 (Homo sapiens, UniProt P11473); assay: Radioligand binding panel (Table S1); conditions: 10 μM T1-11, n 2
T27 construct: purchased MDS Pharma Services Taiwan

A2AR = molecular target: T28, A2AR (Mus musculus, UniProt Q60613); assay: cAMP level in the brain after intraperitoneal injection; type: in vivo; conditions: single intraperitoneal injection 5 mg/kg body weight, 60 min, wildtype and A2AR knockout mice
T28 construct: Brain tissues were carefully removed, and homogenized in 1 ml of assay buffer; from tissue; host or cells: brain of C57BL6 mice (in vivo dosing)
Procedure: C57BL6 mice (8 weeks old) were intraperitoneally (i.p.) administrated with T1-11 (5 mg/kg body weight, n = 4) or vehicle for 60 min. Brain tissues were carefully removed, and homogenized in 1 ml of assay buffer (25 mM Tris (pH 8), 1 mM EGTA, 1 mM MgCl2, […], […], 10 nM okadaic acid, 1× EDTA free proteinase inhibitor cocktail (Roche), 0.5 mM IBMX, and […]). Trichloroacetic acid (6%, final concentration) was then added to the lysate to precipitate proteins. The cAMP level in the supernatant was analyzed as previously described.

`OC[C@H]1O[C@@H](n2cnc3c(NCc4ccc(O)cc4)ncnc32)[C@H](O)[C@@H]1O` [T1-11, N ^6-(4-hydroxybenzyl)adenine riboside] was tested, and the inhibition at 10 µM (Adrenergic β 3) was -1%, the inhibition at 10 µM (Adrenomedullin AM2) was 9% and the inhibition at 10 µM (APJ) was 21%. The inhibition at 10 µM (Bombesin BB1) was -5%, the inhibition at 10 µM (Bombesin BB3) was 12% and the inhibition at 10 µM (Calcium Channel N-Type) was 1%. It also gave an inhibition at 10 µM (Cannabinoid CB1) of -7%, an inhibition at 10 µM (Chemokine CCR1) of -3% and an inhibition at 10 µM [1] of -3%. It also gave an inhibition at 10 µM (Dopamine D2S) of 10%, an inhibition at 10 µM (Dopamine D4.4) of 8% and an inhibition at 10 µM [2] of 2%. For the same compound, the inhibition at 10 µM (GABAB1A) was -1%, the inhibition at 10 µM (Galanin GAL1) was 0% and the “% Inhibition” value (Glutamate, Kainate) was 11%. For the same compound, the “% Inhibition” value (Insulin) was 4%, the inhibition at 10 µM (Muscarinic M5) was 0% and the “% Inhibition” value [3] was -7%. The “% Inhibition” value (Nicotinic Acetylcholine) was 6%, the inhibition at 10 µM [4] was 3% and the inhibition at 10 µM [5] was -1%. For the same compound, the inhibition at 10 µM (Opiate κ (OP2, KOP)) was 6%, the inhibition at 10 µM [6] was 1% and the “% Inhibition” value [7] was -4%. For the same compound, the “% Inhibition” value (Potassium Channel [KA]) was 1%, the inhibition at 10 µM (Prostanoid EP4) was -6% and the “% Inhibition” value (Purinergic P 2X) was 11%. The inhibition at 10 µM [8] was 19%, the inhibition at 10 µM [9] was 1% and the inhibition at 10 µM [10] was 2%. It also gave an inhibition at 10 µM (Somatostatin sst4) of 5%, an inhibition at 10 µM [11] of 2% and an inhibition at 10 µM (Vasopressin V2) of -5%. The inhibition at 10 µM (Vitamin D3) was 6% and the “cAMP levels in the brain” value (A2AR) was “increased cAMP levels in the brains of wildtype, but not A2AR knockout”.
